Legend:
[1] = target: T1, PAR2 (HT-29 cells, SLIGKV activation) (Homo sapiens, UniProt P55085); test: Ca FLIPR TETRA assay, ANTAGONIST mode, stimulation with 8 μM SLIGKV; type: cell-based; conditions: HT-29 cells, antagonist mode, stimulation with 8 μM SLIGKV
T1 construct: host or cells: HT-29 cells
T1 sequence (P55085 26-397): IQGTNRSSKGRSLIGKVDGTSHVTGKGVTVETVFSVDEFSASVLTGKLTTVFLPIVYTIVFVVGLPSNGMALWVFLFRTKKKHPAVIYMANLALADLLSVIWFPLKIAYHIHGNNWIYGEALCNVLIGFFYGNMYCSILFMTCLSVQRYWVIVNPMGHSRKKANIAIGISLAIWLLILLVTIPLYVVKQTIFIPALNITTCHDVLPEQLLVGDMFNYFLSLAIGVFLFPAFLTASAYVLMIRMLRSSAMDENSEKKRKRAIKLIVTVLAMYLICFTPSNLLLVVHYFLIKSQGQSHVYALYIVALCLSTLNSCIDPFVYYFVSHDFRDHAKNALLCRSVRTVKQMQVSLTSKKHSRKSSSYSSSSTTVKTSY
Summary of the method: (§1)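 Inhibition of activator-evoked Ca2+ flux was recorded on FLIPR Tetra in HT-29 cells after 30 min compound exposure at r.t. A prior read checked whether compounds alone triggered Ca2+ release.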

[2] = target: T2, PAR2 (HT-29 cells, trypsin activation) (Homo sapiens, UniProt P55085); test: Ca FLIPR TETRA assay, ANTAGONIST mode, stimulation with 3.1 U/mL trypsin; type: cell-based; conditions: HT-29 cells, antagonist mode, stimulation with 3.1 U/mL trypsin
T2 construct: host or cells: HT-29 cells
T2 sequence (P55085 26-397): T1 sequence (P55085 26-397)
Summary of the method: as §1

[3] = system: Thrombin-stimulated Ca2+ response in HT-29 cells; test: Ca FLIPR TETRA assay, ANTAGONIST mode, stimulation with 1 U/mL Thrombin; type: cell-based, human; conditions: Homo sapiens; HT-29 cells, antagonist mode, stimulation with 1 U/mL Thrombin
Summary of the method: as §1

[4] = system: UTP-stimulated Ca2+ response in HT-29 cells; test: Ca FLIPR TETRA assay, ANTAGONIST mode, stimulation with 0.6 μM UTP; type: cell-based, human; conditions: Homo sapiens; HT-29 cells, antagonist mode, stimulation with 0.6 μM UTP
Summary of the method: as §1

Cc1nnc(C(=O)N2CCN(C(=O)c3cn4nc(-c5ccc(C)c(F)c5)cc(C(C)(C)C)c4n3)C(C)(C)C2)o1 [Compound I-432]
IC50 [1]: 1.9 nM | IC50 [2]: 2.1 nM | IC50 [3]: > 1000 nM | IC50 [4]: > 1000 nM

Cc1cc(C(=O)N2CCN(C(=O)c3cn4nc(-c5ccc(F)cc5)cc(C(C)(C)C)c4n3)C(C)(C)C2)no1 [Compound I-433]
IC50 [1]: 0.7 nM | IC50 [2]: 1.1 nM | IC50 [3]: > 1000 nM | IC50 [4]: > 1000 nM

Cc1cc(C(=O)N2CCN(C(=O)c3cn4nc(-c5ccc(Cl)cc5)cc(C(C)(C)C)c4n3)C(C)(C)C2)[nH]n1 [Compound I-434]
IC50 [1]: 0.5 nM | IC50 [2]: 0.5 nM | IC50 [3]: > 1000 nM | IC50 [4]: > 1000 nM

CC(C)(C)c1cc(-c2ccc(Cl)cc2)nn2cc(C(=O)N3CCN(C(=O)c4ccn[nH]4)CC3(C)C)nc12 [Compound I-435]
IC50 [1]: 0.8 nM | IC50 [2]: 0.7 nM | IC50 [3]: > 1000 nM | IC50 [4]: > 1000 nM

Cc1cc(C(=O)N2CCN(C(=O)c3cn4nc(C5CCC(F)(F)CC5)cc(C(C)(C)C)c4n3)C(C)(C)C2)[nH]n1 [Compound I-437]
IC50 [1]: 0.7 nM | IC50 [2]: 2 nM | IC50 [3]: > 1000 nM | IC50 [4]: > 1000 nM

CC(C)(C)c1cc(-c2ccc(F)c(Cl)c2)nn2cc(C(=O)N3CCNC(=O)C3(C)C)nc12 [Compound I-438]
IC50 [1]: 1.5 nM | IC50 [2]: 2.6 nM | IC50 [3]: > 1000 nM | IC50 [4]: > 1000 nM

Cc1cc(F)ccc1-c1cc(C(C)(C)C)c2nc(C(=O)N3CCNC(=O)C3(C)C)cn2n1 [Compound I-439]
IC50 [1]: 81 nM | IC50 [2]: 125 nM | IC50 [3]: > 1000 nM | IC50 [4]: > 1000 nM

Cc1cc(-c2cc(C(C)C)c3nc(C(=O)N4CCN(C)C(=O)C4(C)C)cn3n2)ccc1F [Compound I-440]
IC50 [1]: 8.1 nM | IC50 [2]: 14 nM | IC50 [3]: > 1000 nM | IC50 [4]: > 1000 nM

Cc1ncc(C(=O)N2CCN(C(=O)c3cn4nc(-c5ccc(Cl)cc5)cc(C(C)(C)C)c4n3)C(C)(C)C2)[nH]1 [Compound I-441]
IC50 [1]: 0.5 nM | IC50 [2]: 0.6 nM | IC50 [3]: > 1000 nM | IC50 [4]: > 1000 nM

Cc1cc(-c2cc(C(C)C)c3nc(C(=O)N4CN(Cc5ccccc5)C(=O)C4(C)C)cn3n2)ccc1F [Compound I-442, 3-benzyl-1-[6-(4-fluoro-3-methyl-phenyl)-8-isopropyl-imidazo[1,2-b]pyridazine-2-carbonyl]-5,5-dimethyl-imidazolidin-4-one]
IC50 [1]: 109 nM | IC50 [2]: 150 nM | IC50 [3]: > 1000 nM | IC50 [4]: > 1000 nM

Cc1nnc(C(=O)N2CCN(C(=O)c3cn4nc(-c5ccc(Cl)cc5)cc(C(C)(C)C)c4n3)C(C)(C)C2)o1 [Compound I-443]
IC50 [1]: 0.8 nM | IC50 [2]: 1.2 nM | IC50 [3]: > 1000 nM | IC50 [4]: > 1000 nM

CC(C)(C)c1cc(-c2ccc(Cl)cc2)nn2cc(C(=O)N3CCN(C(=O)c4ccccn4)CC3(C)C)nc12 [Compound I-444]
IC50 [1]: 0.8 nM | IC50 [2]: 1.3 nM | IC50 [3]: > 1000 nM | IC50 [4]: > 1000 nM

CC(C)(C)c1cc(-c2ccc(Cl)cc2)nn2cc(C(=O)N3CCN(C(=O)c4ncccn4)CC3(C)C)nc12 [Compound I-445]
IC50 [1]: 0.4 nM | IC50 [2]: 0.9 nM | IC50 [3]: > 1000 nM | IC50 [4]: > 1000 nM

CC(C)(C)C1CC(c2ccc(F)cc2)=Nn2cc(C(=O)N3CCNC(=O)C3(C)C)nc21 (stereo not drawn) [Compound I-446]
IC50 [1]: 56 nM | IC50 [2]: 104 nM | IC50 [3]: > 1000 nM | IC50 [4]: > 1000 nM

Cc1cc(C2=Nn3cc(C(=O)N4CCNC(=O)C4(C)C)nc3C(C(C)C)C2)ccc1F (stereo not drawn) [Compound I-447]
IC50 [1]: 170 nM | IC50 [2]: 180 nM | IC50 [3]: > 1000 nM | IC50 [4]: > 1000 nM

Cc1cc(-c2cc(C(C)C)c3nc(C(=O)N4CCN(CC(C)(C)O)C(=O)C4(C)C)cn3n2)ccc1F [Compound I-449]
IC50 [1]: 25.5 nM | IC50 [2]: 46.5 nM | IC50 [3]: > 1000 nM | IC50 [4]: > 1000 nM

Cc1cc(C(=O)N2CCN(C(=O)c3cn4nc(-c5ccc(Cl)c(F)c5)cc(C(C)(C)C)c4n3)C(C)(C)C2)[nH]n1 [Compound I-450]
IC50 [1]: 0.1 nM | IC50 [2]: 0.3 nM | IC50 [3]: > 1000 nM | IC50 [4]: > 1000 nM

Cc1nc(C(=O)N2CCN(C(=O)c3cn4nc(-c5ccc(Cl)c(F)c5)cc(C(C)(C)C)c4n3)C(C)(C)C2)n[nH]1 [Compound I-451]
IC50 [1]: 0.1 nM | IC50 [2]: 0.3 nM | IC50 [3]: > 1000 nM | IC50 [4]: 710 nM

Cc1ncc(C(=O)N2CCN(C(=O)c3cn4nc(-c5ccc(Cl)c(F)c5)cc(C(C)(C)C)c4n3)C(C)(C)C2)[nH]1 [Compound I-453]
IC50 [1]: 0.7 nM | IC50 [2]: 1.2 nM | IC50 [3]: > 1000 nM | IC50 [4]: > 1000 nM

CC(C)(C)c1cc(-c2ccc(Cl)c(F)c2)nn2cc(C(=O)N3CCN(C(=O)c4ccn[nH]4)CC3(C)C)nc12 [Compound I-454]
IC50 [1]: 0.4 nM | IC50 [2]: 0.7 nM | IC50 [3]: > 1000 nM | IC50 [4]: > 1000 nM

CC(C)(C)c1cc(-c2ccc(Cl)c(F)c2)nn2cc(C(=O)N3CCN(C(=O)c4ccccn4)CC3(C)C)nc12 [Compound I-455]
IC50 [1]: 0.6 nM | IC50 [2]: 0.9 nM | IC50 [3]: > 1000 nM | IC50 [4]: > 1000 nM

CC(C)(C)c1cc(-c2ccc(Cl)c(F)c2)nn2cc(C(=O)N3CCN(C(=O)c4ncccn4)CC3(C)C)nc12 [Compound I-456]
IC50 [1]: 0.5 nM | IC50 [2]: 0.7 nM | IC50 [3]: > 1000 nM | IC50 [4]: > 1000 nM

Cc1nnc(C(=O)N2CCN(C(=O)c3cn4nc(-c5ccc(Cl)c(F)c5)cc(C(C)(C)C)c4n3)C(C)(C)C2)o1 [Compound I-457]
IC50 [1]: 0.6 nM | IC50 [2]: 0.8 nM | IC50 [3]: > 1000 nM | IC50 [4]: > 1000 nM

CC(C)(C)c1cc(-c2ccc(F)c(Cl)c2)nn2cc(C(=O)N3CCN(C(=O)c4ccccn4)CC3(C)C)nc12 [Compound I-458]
IC50 [1]: 1.3 nM | IC50 [2]: 2.1 nM | IC50 [3]: > 1000 nM | IC50 [4]: > 1000 nM

CC(C)(C)c1cc(-c2ccc(F)c(Cl)c2)nn2cc(C(=O)N3CCN(C(=O)c4ccn[nH]4)CC3(C)C)nc12 [Compound I-459]
IC50 [1]: 1 nM | IC50 [2]: 1.5 nM | IC50 [3]: > 1000 nM | IC50 [4]: > 1000 nM

CC(C)(C)c1cc(-c2ccc(F)c(Cl)c2)nn2cc(C(=O)N3CCN(C(=O)[C@H]4C[C@@](C)(O)C4)CC3(C)C)nc12 [Compound I-460]
IC50 [1]: 0.5 nM | IC50 [2]: 0.7 nM | IC50 [3]: > 1000 nM | IC50 [4]: > 1000 nM

Cc1nnc(C(=O)N2CCN(C(=O)c3cn4nc(C5CCC(F)(F)CC5)cc(C(C)(C)C)c4n3)C(C)(C)C2)o1 [Compound I-461]
IC50 [1]: 14.8 nM | IC50 [2]: 39.8 nM | IC50 [3]: > 1000 nM | IC50 [4]: > 1000 nM

CC(C)(C)c1cc(-c2ccc(F)cc2)nn2cc(C(=O)N3CCNC(=O)C34CCCC4)nc12 [Compound I-462, 6-(8-(tert-butyl)-6-(4-fluorophenyl)imidazo[1,2-b]pyridazine-2-carbonyl)-6,9-diazaspiro[4.5]decan-10-one]
IC50 [1]: 2.2 nM | IC50 [2]: 3.7 nM | IC50 [3]: > 1000 nM | IC50 [4]: > 1000 nM

CC(C)(C)c1cc(-c2ccc(C(F)(F)F)cc2)nn2cc(C(=O)N3CCN(C(=O)[C@H]4C[C@@](C)(O)C4)CC3(C)C)nc12 [Compound I-463]
IC50 [1]: 1.8 nM | IC50 [2]: 2.7 nM | IC50 [3]: > 1000 nM | IC50 [4]: > 1000 nM

CC(C)(C)c1cc(-c2ccc(F)c(Cl)c2)nn2cc(C(=O)N3CCN(C(=O)c4ncccn4)CC3(C)C)nc12 [Compound I-464]
IC50 [1]: 1.2 nM | IC50 [2]: 2.2 nM | IC50 [3]: > 1000 nM | IC50 [4]: > 1000 nM

Cc1nnc(C(=O)N2CCN(C(=O)c3cn4nc(-c5ccc(F)c(Cl)c5)cc(C(C)(C)C)c4n3)C(C)(C)C2)o1 [Compound I-465]
IC50 [1]: 1.8 nM | IC50 [2]: 3.7 nM | IC50 [3]: > 1000 nM | IC50 [4]: > 1000 nM

Cc1cc(C(=O)N2CCN(C(=O)c3cn4nc(-c5ccc(F)c(Cl)c5)cc(C(C)(C)C)c4n3)C(C)(C)C2)[nH]n1 [Compound I-466]
IC50 [1]: 0.7 nM | IC50 [2]: 1.9 nM | IC50 [3]: > 1000 nM | IC50 [4]: > 1000 nM

Cc1ncc(C(=O)N2CCN(C(=O)c3cn4nc(-c5ccc(F)c(Cl)c5)cc(C(C)(C)C)c4n3)C(C)(C)C2)[nH]1 [Compound I-467]
IC50 [1]: 0.9 nM | IC50 [2]: 2 nM | IC50 [3]: > 1000 nM | IC50 [4]: > 1000 nM

Cc1n[nH]c(C(=O)N2CCN(C(=O)c3cn4nc(-c5ccc(F)c(Cl)c5)cc(C(C)(C)C)c4n3)C(C)(C)C2)n1 [Compound I-468]
IC50 [1]: 0.7 nM | IC50 [2]: 1.2 nM | IC50 [3]: 3240 nM | IC50 [4]: 2120 nM

CC(C)(C)c1cc(-c2ccc(Cl)c(F)c2)nn2cc(C(=O)N3CCN(C(=O)[C@H]4C[C@@](C)(O)C4)CC3(C)C)nc12 [Compound I-469]
IC50 [1]: 0.2 nM | IC50 [2]: 0.2 nM | IC50 [3]: 8840 nM | IC50 [4]: 11000 nM

Cc1cc(-c2cc(C(C)C)c3nc(C(=O)N4CCN(CO)C(=O)C4(C)C)cn3n2)ccc1F [Compound I-470]
IC50 [1]: 25.7 nM | IC50 [2]: 31.7 nM | IC50 [3]: > 1000 nM | IC50 [4]: > 1000 nM
